Results published in US20100173972A1, “METHODS AND USES RELATED TO RHBDL4” (MEDICAL RESEARCH COUNCIL, priority 2007, published 2010).
“Also recorded” adds a separate entry of the source.

Tests used:
[1] = system: TGFalpha release, HEK293T cells; experiment: Time course after PMA induction of HEK293T cells overexpressing pro-TGFalpha, with protease inhibitors; type: cell-based, human; settings: DCI 100 μM; HEK293T; Bcl-XL co-expressed
Method: Cell culture and cell-based rhomboid cleavage assay. Cells were propagated in DMEM supplemented with 10% fetal calf serum. COS-7 cells were transfected in 35 mm wells with FuGENE 6 (Roche) as described (7). In brief, 250 ng plasmid encoding the substrate (as indicated in the description of the figures), 25 ng for the rhomboid tested, 50 ng for the GRP receptor and empty plasmid to bring the total DNA to 1 μg was used. For protease titration, 2.5 ng to 250 ng plasmid coding RHBDL4 was used. HeLa and HEK293T were transfected with polyethyleneimine (linear, MW 25000; Polysciences) as described (32) using twice the amount of DNA as used with FuGENE. Transfection efficiency was monitored by co-transfection of pEGFP (Invitrogen). Sixteen hours post transfection, medium was replaced with serum-free medium containing 10 μM BB94 (British Biotech) unless otherwise stated. For activation of endogenous rhomboid activity, phorbol 12-myristate 13-acetate (PMA) (1 μM, from Sigma) or bombesin (100 nM, from Sigma) was added to the cell medium. For inhibitor studies, the indicated protease inhibitors (from Calbiochem), diluted from a stock solution in DMSO, were compared with a carrier only. Medium was harvested typically after 24 to 30 hours; for inhibitor studies using 3,4-Dichloroisocoumarin (DCI) a time course with 0 minutes, 30 minutes and 4 hours was performed (FIG. 4C). Cells were solubilized in SDS-sample buffer and analyzed by SDS-PAGE. EndoH (New England Biolabs) and PNGaseF (New England Biolabs) treatment of SDS-solubilized cell extracts was performed according to the manufacturers instructions. Conditioned media were centrifuged for 10 minutes at full speed in a microfuge to remove cell debris, and subsequently proteins in the supernatant were precipitated by adding trichloroacetic acid (TCA) to 10%. The precipitate was recovered by centrifugation, washed with acetone and dissolved in SDS-PAGE sample buffer and analyzed by SDS-PAGE. Alternatively to TCA precipitation, TGFalpha-H8 in conditioned medium was captured by metal-chelate chromatography using Ni-NTA agarose beads (Qiagen) in the presence of 20 mM imidazole at pH 8.0. Subsequently beads were washed with 20 mM Tris-Cl pH 8.0, 50 mM imidazole, eluted with SDS-sample buffer and analyzed by SDS-PAGE and Western blotting (see below). Typically, from a 35 mm tissue culture dish, 10% of cell extracts and 20% of tissue culture supernatant were loaded. To increase the sensitivity, for experiments shown in FIGS. 1C, 3E, 4A and 4C, five times the amount of the media fractions were loaded.
Western blotting. Proteins were analyzed by 4-20% Tris-Glycine gradient gels (Invitrogen) followed by Western blot analysis using either anti FLAG M2-HRP (1:1000; Sigma), anti HA antibody 16B12 (1:1000; Covance), anti actin antibody ab8227 (1:5000; Abcam) or affinity purified polyclonal rabbit antibody anti RHBDL4 (1:4000; see above). In order to detect the 6 kDa form of TGFalpha, proteins were transferred on PVDF membrane with 0.2 μm pore size (Millipore) and probed with 1:100 anti TGFalpha antibody 134A-2B3 (Oncogene). For the detection of phosphorylated EGFR, PVDF membranes were blocked in 3% BSA in TBS-Tween supplemented with 200 μM NaVO3. Protein was detected with anti phospho-EGFR antibody 9H2 (1:2000, Upstate). […] Bound antibodies were detected by incubation with secondary antibody (Santa Cruz Biotechnology) followed by enhanced chemiluminescence (Amersham Biosciences).

[2] = system: cells; experiment: Toxicity of DCI to cells during TGFalpha release experiment; type: cell-based; settings: over several hours, similar time course as TGFalpha release
Source text: A central prediction of our model is that the observed BB94-insensitive TGFalpha release would be inhibited by the serine protease inhibitor DCI, a rhomboid inhibitor. […] To help the cells survive, we expressed the antiapoptotic protein Bch XL. […] Overall, these experiments strongly support that EGFR transactivation is triggered by RHBDL4-catalysed shedding of pro-TGFalpha.
Cell culture and cell-based rhomboid cleavage assay. Cells were propagated in DMEM supplemented with 10% fetal calf serum. COS-7 cells were transfected in 35 mm wells with FuGENE 6 (Roche) as described (7). In brief, 250 ng plasmid encoding the substrate (as indicated in the description of the figures), 25 ng for the rhomboid tested, 50 ng for the GRP receptor and empty plasmid to bring the total DNA to 1 μg was used. For protease titration, 2.5 ng to 250 ng plasmid coding RHBDL4 was used. […] Transfection efficiency was monitored by co-transfection of pEGFP (Invitrogen). […] Cells were solubilized in SDS-sample buffer and analyzed by SDS-PAGE. […] The precipitate was recovered by centrifugation, washed with acetone and dissolved in SDS-PAGE sample buffer and analyzed by SDS-PAGE. […] Subsequently beads were washed with 20 mM Tris-Cl pH 8.0, 50 mM imidazole, eluted with SDS-sample buffer and analyzed by SDS-PAGE and Western blotting (see below). […]

[3] = biological target: T1, mouse RHBDL4 (Mus musculus, UniProt Q8BHC7); experiment: In vitro activity assay with recombinant mouse RHBDL4 (Gurken TMD substrate); type: biochemical; design: His6 (C); made in house; host or cells: E. coli BL21-Gold(DE3) with pRARE2; Triton X-100 solubilised membrane fraction; settings: Triton-X 100 solubilised E. coli membrane fraction; also run with mouse RHBDL1 and human RHBDL2
T1 sequence (Q8BHC7 1-315): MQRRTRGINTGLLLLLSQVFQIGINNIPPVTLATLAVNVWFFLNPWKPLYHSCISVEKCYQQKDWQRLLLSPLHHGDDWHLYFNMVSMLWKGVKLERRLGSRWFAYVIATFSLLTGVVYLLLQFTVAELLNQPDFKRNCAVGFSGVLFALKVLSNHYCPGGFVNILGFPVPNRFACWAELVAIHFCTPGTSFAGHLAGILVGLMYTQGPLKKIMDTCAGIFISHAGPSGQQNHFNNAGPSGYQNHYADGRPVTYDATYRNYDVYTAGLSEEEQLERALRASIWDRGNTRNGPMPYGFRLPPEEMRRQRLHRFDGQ
Source text: To produce recombinant RHBDL4, a RHBDL4-purification tag fusion protein is expressed and solubilised with detergent appropriate for in vitro activity assay. In this example, C-terminally His6-tagged mouse RHBDL4 is expressed in E. coli BL21-Gold(DE3) cells harbouring the expression vector and the extra plasmid pRARE2 (Novagen) as described for human RHBDL2 (Lemberg, 2005, EMBO vol 24 pp 464-472).
After the protein expression, cells are disrupted and membranes containing the recombinant RHBDL4 are harvested by centrifugation as had been described (Lemberg, 2005 above).
Subsequently the recombinant protein is solubilised with the detergent Triton-X 100 and tested for activity.
Radiolabelled substrate, such as the substrate TMD, is generated by cell-free in vitro translation using wheat germ extract and [35S]methionine as, had been described (Lemberg and Martoglio, 2003 Anal Biochem. vol 319 pp 327-31).
In this example a substrate corresponding to an N-terminal methionine plus residues 224 to 272 of Drosophila Gurken is used. […]
For the cleavage assay, 1-4 μl in vitro translation mix or 50-200 μg/ml recombinant substrate are added to a 40 μl-reaction containing recombinant RHBDL4 (e.g. about 1-5 μg) in 50 mM HEPES/NaOH, pH 7.4, 10% glycerol and 50 mM EDTA. Samples are incubated at 30° C. and subsequently the cleavage reaction is analyzed by SDS-PAGE as described (Lemberg, 2005 above). […]

[4] = biological target: RHBDL4-processed extracellular TGFalpha (post-translationally modified higher MW forms), P01135
Sequence of RHBDL4-processed extracellular TGFalpha (post-translationally modified higher MW forms), P01135 (P01135 whole entry, looked up, tested part not stated): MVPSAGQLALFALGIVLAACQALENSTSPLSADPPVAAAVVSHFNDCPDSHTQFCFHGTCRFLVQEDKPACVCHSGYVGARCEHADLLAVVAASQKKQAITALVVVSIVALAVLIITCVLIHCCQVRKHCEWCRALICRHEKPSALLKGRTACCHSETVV

| Cleavage of Drosophila Gurken TMD substrate [3] | Molecule | Release of the 37 kDa form of TGFalpha in response to PMA [1] | Toxicity to cells [2] | in vitro TACE cleavage assay (Western blot) [4] |
| --- | --- | --- | --- | --- |
| inhibited | O=c1oc(Cl)c(Cl)c2ccccc12 [DCI, 3,4-Dichloroisocoumarin] | inhibited; also recorded: strong and specific inhibitory effect | toxic to cells | – |
| – | recombinant mouse TACE (R&D Systems) (protein) RAEPNPLKNTCKLLVVADHRFYKYMGRGEESTTTNYLIELIDRVDDIYRNTSWDNAGFKGYGVQIEQIRILKSPQEVKPGERHFNMAKSFPNEEKDAWDVKMLLEQFSFDIAEEASKVCLAHLFTYQDFDMGTLGLAYVGSPRANSHGGVCPKAYYNPTVKKNIYLNSGLTSTKNYGKTILTKEADLVTTHELGHNFGAEHDPDGLAECAPNEDQGGKYVMYPIAVSGDHENNKMFSNCSKQSIYKTIESKAQECFQERSNKVCGNSRVDEGEECDPGIMYLNNDTCCNSDCTLKPGVQCSDRNSPCCKNCQFETAQKKCQEAINATCKGVSYCTGNSSECPPPGDAEDDTVCLDLGKCKAGKCIPFCKREQELESCACVDTDNSCKVCCRNLSGPCVPYVDAEQKNLFLRKGKPCTVGFCDMNGKCEKRVQDVIERFWDFIDQLSINTFGKFLADN | – | – | Recombinant TACE cleaved the post-translationally modified higher MW forms of TGFalpha. (filled triangles), generating the mature 6 kDa form |
